This passage reports EC50 results from paper PMC4029082, “Functional characterisation of a nicotinic acetylcholine receptor α subunit from the brown dog tick, Rhipicephalus sanguineus^” (International Journal for Parasitology, 2014).

Usually EC50 stands for the concentration giving half of the maximal effect. A high value points to lower potency in that assay.

The experiment addresses T1, Rsanα1 nicotinic acetylcholine receptor α subunit (Rhipicephalus sanguineus, UniProt V9Z9T0).
T1 construct: full-length Rsanα1 (GenBank KF695387) expressed in Xenopus laevis oocytes; with chicken β2 nAChR subunit
In words: two-electrode voltage clamp in Xenopus oocytes, concentration-response curve (agonist). In kind it is cell-based.

T1 sequence (V9Z9T0 45-525): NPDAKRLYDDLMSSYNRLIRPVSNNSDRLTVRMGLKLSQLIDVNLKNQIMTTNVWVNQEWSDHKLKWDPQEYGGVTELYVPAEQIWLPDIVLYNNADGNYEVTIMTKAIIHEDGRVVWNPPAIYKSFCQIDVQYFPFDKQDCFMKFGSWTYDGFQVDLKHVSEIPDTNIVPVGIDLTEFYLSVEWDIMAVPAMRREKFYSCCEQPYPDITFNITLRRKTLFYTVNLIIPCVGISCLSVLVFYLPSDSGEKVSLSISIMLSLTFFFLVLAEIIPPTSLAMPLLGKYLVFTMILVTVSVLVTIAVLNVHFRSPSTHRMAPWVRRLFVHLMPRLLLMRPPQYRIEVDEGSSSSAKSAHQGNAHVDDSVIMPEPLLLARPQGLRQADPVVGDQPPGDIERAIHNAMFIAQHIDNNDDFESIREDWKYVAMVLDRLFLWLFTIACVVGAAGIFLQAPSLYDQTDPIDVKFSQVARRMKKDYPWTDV
T1 sequence (P09484 19-491 partner): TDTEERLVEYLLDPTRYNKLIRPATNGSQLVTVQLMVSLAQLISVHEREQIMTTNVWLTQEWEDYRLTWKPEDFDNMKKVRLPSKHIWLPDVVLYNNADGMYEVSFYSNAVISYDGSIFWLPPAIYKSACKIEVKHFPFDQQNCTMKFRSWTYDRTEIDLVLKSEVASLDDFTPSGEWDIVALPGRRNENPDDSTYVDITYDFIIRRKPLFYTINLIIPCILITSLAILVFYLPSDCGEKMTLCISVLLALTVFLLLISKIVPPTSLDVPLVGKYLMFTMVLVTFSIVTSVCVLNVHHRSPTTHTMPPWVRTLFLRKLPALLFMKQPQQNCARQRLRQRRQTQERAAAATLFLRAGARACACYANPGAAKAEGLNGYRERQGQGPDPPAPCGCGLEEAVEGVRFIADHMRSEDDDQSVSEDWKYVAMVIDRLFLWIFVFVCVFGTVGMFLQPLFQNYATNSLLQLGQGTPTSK

The compound `CC(=O)OCC[N+](C)(C)C` [acetylcholine] showed an EC50 of 10.7 µM.
